Reference: patent US20200129533A1, “PHARMACEUTICAL NANOSUSPENSION FOR THE THERAPY OF HIV INFECTION” (priority 2017, published 2020)
Like-named read-outs stand apart in the source and are kept apart here.

What was measured:
Assay type in all cases: cell-based
[1] = system: HIV-1 mutant virus V106A; experiment: Inhibition of replication of HIV-1 mutant virus V106A; conditions: Human immunodeficiency virus 1, read-out: Average IC50
Description: (§1) Elsulfavirine/Elpida/VM-1500 (la) is the prodrug of the active compound VM-1500A (1b), a Non-Nucleoside Reverse Transcriptase Inhibitor (NNRTI), which efficiently prevents HIV-1 HXB2 strain replication in the MT-4 cell line. […] 0.6±0.6 nM (G190A), 1.3±0.3 nM (L100I/K103N), and 1.3±0.4 nM (K103N/Y181C)

[2] = system: HIV-1 mutant virus L100I/K103N; experiment: Inhibition of replication of HIV-1 mutant virus L100I/K103N; conditions: Human immunodeficiency virus 1, read-out: Average IC50
Description: as §1

[3] = system: HIV-1 mutant virus K103N/Y181C; experiment: Inhibition of replication of HIV-1 mutant virus K103N/Y181C; conditions: Human immunodeficiency virus 1, read-out: Average IC50
Description: as §1

[4] = system: HIV-1 HXB2 strain; experiment: Inhibition of HIV-1 HXB2 (wild-type) replication in MT-4 cell line
Description: as §1

[5] = system: HIV-1 mutant virus G190A; experiment: Inhibition of replication of HIV-1 mutant virus G190A; conditions: Human immunodeficiency virus 1, read-out: Average IC50
Description: as §1

For `N#Cc1cc(Cl)cc(Oc2c(Br)ccc(CC(=O)Nc3ccc(S(N)(=O)=O)cc3Cl)c2F)c1` [VM-1500A], the IC50 [1] was 1.2 ± 0.2 nM, the IC50 [2] was 1.3 ± 0.3 nM and the IC50 [3] was 1.3 ± 0.4 nM. The IC50 ([4]; Human immunodeficiency virus 1, HXB2, MT4, as restated, converted to ng/ml, read-out: effective concentration (IC50)) was 0.74 ng/mL, the IC50 ([4]; Human immunodeficiency virus 1, HXB2, MT4, as restated, read-out: effective concentration (IC50)) was 1.3 nM and the IC50 ([4]; Human immunodeficiency virus 1, MT4, wild-type HXB2 strain, MT-4 cell line, read-out: Average IC50) was 1.3 ± 0.4 nM. It also gave an IC50 [5] of 0.6 ± 0.6 nM.
